For assay [1], the target named is T1, Adenosine receptor A1 (Cavia porcellus, UniProt P47745).
T1 sequence (P47745 whole entry): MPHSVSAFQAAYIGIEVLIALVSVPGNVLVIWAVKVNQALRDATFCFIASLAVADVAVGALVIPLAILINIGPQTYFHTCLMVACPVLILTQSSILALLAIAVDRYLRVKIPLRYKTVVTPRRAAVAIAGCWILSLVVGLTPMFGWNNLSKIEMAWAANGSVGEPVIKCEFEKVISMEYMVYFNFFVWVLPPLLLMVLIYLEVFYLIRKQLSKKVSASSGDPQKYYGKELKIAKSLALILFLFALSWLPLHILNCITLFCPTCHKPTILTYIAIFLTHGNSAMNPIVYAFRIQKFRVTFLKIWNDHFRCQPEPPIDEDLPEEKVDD
The assay can be described thus: Prolongation of the stimulus-QRS interval by 50% of the maximum response at the Adenosine A1 receptor in langendorff guinea pig heart preparation. Format: functional.

In assay [2] the target is T2, Adenosine A2 receptor (Homo sapiens, UniProt P29275+P29274).
Description: Coronary arteries vasodilation at the Adenosine A2 receptor in langendorff guinea pig heart preparation
Assay [3] concerns the target T1, Adenosine receptor A1.
Description: Prolongation of the stimulus-QRS interval by 50% of the maximum response at the adenosine A1 receptor in langendorff guinea pig heart preparation
Assay [4] concerns the target T2, Adenosine A2 receptor. The source holds these as a separate data set.
Description: Coronary arteries vasodilation at the adenosine A2 receptor in langendorff guinea pig heart preparation

pEC50: −log10 of the molar value.

What is called pEC50 is −log10 of the EC50, conventionally taken in molar units. The low end stands for a high EC50, the high end for a low EC50. On Adenosine receptor A1 [1], `CCC(CC)COc1nc(N)c2ncn(C3O[C@@H](CO)[C@H](O)[C@@H]3O)c2n1` (stereo partly specified) had a pEC50 of 4.45. Further, the “-Log EC50” value on Adenosine A2 receptor [2] worked out at 6.54. The compound `CCNC(=O)[C@H]1O[C@@H](n2cnc3c(N)nc(NCCc4ccc(CCC(=O)O)cc4)nc32)[C@H](O)[C@@H]1O` [CGS-21680] showed a pEC50 at Adenosine receptor A1 [1] of 4.61.

`Nc1nc(OCCC(=O)[C@H]2CC3CCC2C3)nc2c1ncn2C1O[C@@H](CO)[C@H](O)[C@@H]1O` (stereo partly specified): at Adenosine receptor A1 [3], the pEC50 is 5.06. The “-Log EC50” value on Adenosine A2 receptor [4] was 8.35.

As to `Nc1nc(OCC2CCCCC2)nc2c1ncn2C1O[C@@H](CO)[C@H](O)[C@@H]1O` (stereo partly specified), the pEC50 on Adenosine receptor A1 [3] is 4.30. Further, the “-Log EC50” value on Adenosine A2 receptor [4] turned out to be 6.75. Take `CC(C)CCOc1nc(N)c2ncn(C3O[C@@H](CO)[C@H](O)[C@@H]3O)c2n1` (stereo partly specified): the pEC50 on Adenosine receptor A1 [1] is 4.18. The “-Log EC50” value on Adenosine A2 receptor [2] stood at 7.61. Turning to `Nc1nc(OCCCC2CCCCC2)nc2c1ncn2C1O[C@@H](CO)[C@H](O)[C@@H]1O` (stereo partly specified), the pEC50 on Adenosine receptor A1 [3] is 5.43. Besides, the “-Log EC50” value at Adenosine A2 receptor [4] stood at 8.67.

In the case of `Nc1nc(OCCC2CCCC2)nc2c1ncn2C1O[C@@H](CO)[C@H](O)[C@@H]1O` (stereo partly specified), the pEC50 on Adenosine receptor A1 [3] was 4.85. For the same compound, the “-Log EC50” value on Adenosine A2 receptor [4] came out at 8.41.

`Nc1nc(Nc2ccccc2)nc2c1ncn2[C@@H]1O[C@H](CO)[C@@H](O)[C@H]1O` showed a pEC50 on Adenosine receptor A1 [3] of 4.90. Also, the “-Log EC50” value on Adenosine A2 receptor [4] is reported as 7.74.

Compound `O=C(Nc1ncnc2c1ncn2[C@@H]1O[C@H](CO)[C@@H](O)[C@H]1O)[C@H]1C[C@H]2CC[C@@H]1C2` gave a pEC50 at Adenosine receptor A1 [1] of 8.27. The “-Log EC50” value at Adenosine A2 receptor [2] is on record as 7.08. On to `CCC(CC)CCOc1nc(N)c2ncn(C3O[C@@H](CO)[C@H](O)[C@@H]3O)c2n1` (stereo partly specified), for which the negative logarithm of the EC50 (pEC50) at Adenosine receptor A1 [1] was 4.80. Also, the “-Log EC50” value on Adenosine A2 receptor [2] was found to be 7.8. Consider `Nc1nc(OCCO)nc2c1ncn2C1O[C@@H](CO)[C@H](O)[C@@H]1O` (stereo partly specified), for which the pEC50 on Adenosine receptor A1 [1] is 5.66. In addition, the “-Log EC50” value on Adenosine A2 receptor [2] is listed as 7.18. Taken in the same sequence, the figures for `CC(C)N(c1ccccc1)c1ncnc2c1ncn2C1O[C@H](CO)[C@@H](O)[C@H]1O` (stereo partly specified) were 7.47 and 7.88.

Consider `CC1(C)C2CCC(C(=O)CCOc3nc(N)c4ncn(C5O[C@@H](CO)[C@H](O)[C@@H]5O)c4n3)C1C2` (stereo partly specified), for which, at Adenosine receptor A1 [1], the pEC50 is 5.35. The “-Log EC50” value on Adenosine A2 receptor [2] is 8.24. For `CCCOc1nc(N)c2ncn(C3O[C@@H](CO)[C@H](O)[C@@H]3O)c2n1` (stereo partly specified), in that order: 3.83 and 7.28.

In turn, `CC#CCCOc1nc(N)c2ncn(C3O[C@@H](CO)[C@H](O)[C@@H]3O)c2n1` (stereo partly specified) had a pEC50 on Adenosine receptor A1 [1] of 4.20. Further, on Adenosine A2 receptor [2], the “-Log EC50” value is recorded as 7.56. `Nc1nc(OCCC2CCCCC2)nc2c1ncn2C1O[C@@H](CO)[C@H](O)[C@@H]1O` (stereo partly specified): on Adenosine receptor A1 [3], the pEC50 is 5.06. Moreover, at Adenosine A2 receptor [4], the “-Log EC50” value amounted to 8.99.

In turn, `CCC(C)Oc1nc(N)c2ncn(C3O[C@@H](CO)[C@H](O)[C@@H]3O)c2n1` (stereo partly specified) gave a pEC50 on Adenosine receptor A1 [1] of 3.05. Also, at Adenosine A2 receptor [2], the “-Log EC50” value is recorded as 5.45. `Nc1nc(Cl)nc2c1ncn2[C@@H]1O[C@H](CO)[C@@H](O)[C@H]1O` had a pEC50 on Adenosine receptor A1 [3] of 6.72. On Adenosine A2 receptor [4], the “-Log EC50” value is 7.6. The compound `CCCCCCOc1nc(N)c2ncn(C3O[C@@H](CO)[C@H](O)[C@@H]3O)c2n1` (stereo partly specified) had a pEC50 at Adenosine receptor A1 [1] of 4.86. Further, the “-Log EC50” value on Adenosine A2 receptor [2] is 8.42.

`CC(C)Oc1nc(N)c2ncn(C3O[C@@H](CO)[C@H](O)[C@@H]3O)c2n1` (stereo partly specified) had a pEC50 at Adenosine receptor A1 [1] of 3.65. The “-Log EC50” value on Adenosine A2 receptor [2] was determined as 5.86. With `CCOc1nc(N)c2ncn(C3O[C@@H](CO)[C@H](O)[C@@H]3O)c2n1` (stereo partly specified), on Adenosine receptor A1 [1], the pEC50 is 4.10. Also, the “-Log EC50” value at Adenosine A2 receptor [2] came out at 6.44. On to `COc1cc(OC)cc(C(CNc2ncnc3c2ncn3[C@@H]2O[C@H](CO)[C@@H](O)[C@H]2O)c2ccccc2C)c1` (stereo partly specified), for which the pEC50 at Adenosine receptor A1 [3] was 5.25. The “-Log EC50” value on Adenosine A2 receptor [4] came out at 9.35. For `COc1nc(N)c2ncn([C@H]3O[C@@H](CO)[C@H](O)[C@@H]3O)c2n1`, in that order: 5.03 and 6.16. Compound `Nc1nc(OC2CCCCC2)nc2c1ncn2C1O[C@@H](CO)[C@H](O)[C@@H]1O` (stereo partly specified) had a pEC50 on Adenosine receptor A1 [1] of 4.00. Also, the “-Log EC50” value on Adenosine A2 receptor [2] is on record as 6.18. For `CC(C)COc1nc(N)c2ncn(C3O[C@@H](CO)[C@H](O)[C@@H]3O)c2n1` (stereo partly specified), in that order: 3.97 and 7.15. Compound `CCCCOc1nc(N)c2ncn(C3O[C@@H](CO)[C@H](O)[C@@H]3O)c2n1` (stereo partly specified) showed a pEC50 on Adenosine receptor A1 [1] of 4.43. In addition, the “-Log EC50” value on Adenosine A2 receptor [2] turned out to be 7.28.

In turn, `Nc1nc(OC2CCCC2)nc2c1ncn2[C@H]1O[C@@H](CO)[C@H](O)[C@@H]1O` had a negative logarithm of the EC50 (pEC50) at Adenosine receptor A1 [1] of 4.10. Besides, the “-Log EC50” value at Adenosine A2 receptor [2] came out at 7.04. Compound `Nc1nc(OCCCCC2CCCCC2)nc2c1ncn2C1O[C@@H](CO)[C@H](O)[C@@H]1O` (stereo partly specified) showed a pEC50 on Adenosine receptor A1 [1] of 5.58. Also, the “-Log EC50” value at Adenosine A2 receptor [2] was found to be 8.71.

`CCCCCOc1nc(N)c2ncn(C3O[C@@H](CO)[C@H](O)[C@@H]3O)c2n1` (stereo partly specified) showed a pEC50 at Adenosine receptor A1 [1] of 4.34. For the same compound, the “-Log EC50” value on Adenosine A2 receptor [2] is 7.94. `CC(C)CCCOc1nc(N)c2ncn(C3O[C@@H](CO)[C@H](O)[C@@H]3O)c2n1` (stereo partly specified): the negative-log EC50 (pEC50) at Adenosine receptor A1 [1] was 4.64. For the same compound, at Adenosine A2 receptor [2], the “-Log EC50” value came out at 8.45. At Adenosine receptor A1 [1], `Nc1nc(=O)[nH]c2c1ncn2[C@@H]1O[C@H](CO)[C@@H](O)[C@H]1O` [ISOGUANOSINE] had a pEC50 of 5.94. Moreover, the “-Log EC50” value on Adenosine A2 receptor [2] was 7.1.

These data come from ChEMBL document CHEMBL1125661, “2-Alkoxyadenosines: potent and selective agonists at the coronary artery A2 adenosine receptor” (J Med Chem, 1991).
